≈ marks a conversion by molar mass, not a printed value.
Legend:
E. faecalis ATCC 29212 = assay: direct antimicrobial activity (disc-diffusion, MIC, MBC); type: cell-based; details: Enterococcus faecalis, ATCC29212
Procedure: (§1) Direct antimicrobial activity against Gram-negative and Gram-positive bacterial strains, as well as against yeast, was examined as previously described by the disc-diffusion test, the MIC determination assay, the MBC (for bacteria), and the MFC (for yeasts) determination tests. All the above-mentioned tests were performed according to EUCAST [71, 72] and CLSI [73, 74, 75, 76, 77] recommendations. The following reference agents were used: nitrofurantoin (for Gram-negative rods), linezolid (for Gram-positive bacteria), and fluconazole (in the case of fungi). The new aromatic diboronic acids were dissolved in DMSO (Sigma, St. Louis, MO, USA). In the disc-diffusion test, the concentration of new agents was 0.4 mg per disc.

E. faecium ATCC 6057 = assay: as above; type: cell-based; details: Enterococcus faecium, ATCC6057
Procedure: as §1

[1] = system: S. aureus ATCC 43300 MRSA; assay: as above; type: cell-based; details: Staphylococcus aureus
Procedure: as §1

S. aureus ATCC 6538P = assay: as above; type: cell-based; details: Staphylococcus aureus, ATCC6538P
Procedure: as §1

[2] = system: S. epidermidis ATCC 12228; assay: as above; type: cell-based; details: Staphylococcus epidermidis, ATCC12228
Procedure: as §1

[3] = system: C. parapsilosis ATCC 22019; assay: antifungal activity (disc-diffusion, MIC, MFC); type: cell-based, Candida parapsilosis; details: Lodderomyces parapsilosis, ATCC22019; for MIC: fluconazole by Etest
Procedure: as §1

[4] = system: C. guilliermondii IBA 155; assay: antifungal activity (disc-diffusion, MIC, MFC); type: cell-based, Candida guilliermondii; details: Meyerozyma guilliermondii, IBA155; for MIC: fluconazole by Etest
Procedure: as §1

C. krusei ATCC 6258 = assay: antifungal activity (disc-diffusion, MIC, MFC); type: cell-based, Candida krusei; details: Pichia kudriavzevii, ATCC6258; for MIC: fluconazole by Etest
Procedure: as §1

C. albicans ATCC 90028 = assay: antifungal activity (disc-diffusion, MIC, MFC); type: cell-based; details: Candida albicans, ATCC90028; for MIC: fluconazole by Etest
Procedure: as §1

C. tropicalis ATCC 750 = assay: antifungal activity (disc-diffusion, MIC, MFC); type: cell-based; details: Candida tropicalis, ATCC750; for MIC: fluconazole by Etest
Procedure: as §1

C. tropicalis IBA 171 = assay: antifungal activity (disc-diffusion, MIC, MFC); type: cell-based; details: Candida tropicalis, IBA171; for MIC: fluconazole by Etest
Procedure: as §1

S. cerevisiae ATCC 9763 = assay: antifungal activity (disc-diffusion, MIC, MFC); type: cell-based; details: Saccharomyces cerevisiae, ATCC9763; for MIC: fluconazole by Etest
Procedure: as §1

[5] = MTT-based viability assay; type: cell-based; details: human, MRC-5 human fibroblasts, 72 h, read-out: Viability of MRC-5 cells (% of viable cells ± SD)
Procedure: MRC-5 human fibroblasts (ECACC) were cultured in MEME, Minimum Essential Medium Eagle (Merck) supplemented with 10% fetal bovine serum (Merck), 2 mM l-glutamine, antibiotics (100 U/mL penicillin, 100 μg/mL streptomycin, Merck) and 1% non-essential amino acids (Merck). Cells were grown in 75 cm^2 cell culture flasks (Sarstedt) in a humidified atmosphere of CO2/air (5/95%) at 37 °C. MTT-based viability assay was conducted as described previously. Optical densities were measured at 570 nm using a BioTek microplate reader. All measurements were carried out in three replicates, and the results were expressed as a percent of viable cells versus control cells.

[6] = system: E. coli 76 KPC-2-positive; assay: checkerboard microdilution, antibiotic plus tested agent; type: cell-based, Escherichia coli; details: Escherichia coli; read-out: MIC of imipenem alone
Procedure: (§2) To examine the ability of tested agents to inhibit various carbapenemases and AmpC-enzymes, their synergy with antibiotics against β-lactamase-producing strains was assessed by checkerboard microdilution assay, with slight modification. Checkerboards were prepared in microtiter plates, with seven two-fold dilutions of β-lactams (1–64 mg/L) in the rows and three two-fold dilutions of tested agents and PBA (4–16 mg/L) in the columns. Tested agents’ concentrations were limited to the concentrations at which the newest commercially available BLIs (vaborbactam, relebactam, and avibactam) are used in susceptibility testing. Plates were inoculated and incubated as in the MIC microdilution assay. Parallel, MICs of tested agents and PBA alone were determined by the microdilution assay. Following the incubation, antibiotic MICs in the presence of each agent’s concentration were determined. Moreover, for the first well without growth found in each checkerboard row and column along the growth/non-growth interface, the fractional inhibitory concentration index (FICI) was calculated using the formula below:FICI = [(MIC of antibiotic in combination)/(MIC of antibiotic alone)] + [(MIC of the tested agent in combination)/(MIC of tested agent alone)].
(§3) For calculations, all off-scale MICs were converted to the next-highest doubling concentration. Subsequently, both the average and the lowest FICI were interpreted. The interpretation was as follows: FICI ≤ 0.5, synergy; 0.5 < FICI ≤ 4, indifference and FICI > 4, antagonism. Primarily, examined combinations consisted of meropenem (Pol-Aura, Morag, Poland) plus tested agents against carbapenemases-producing strains and ceftazidime (Pol-Aura, Morag, Poland) plus tested agents against AmpC-producing strains. For agents that reduced meropenem MIC at least 4-fold for at least two tested strains, similar assays were performed with imipenem (Pol-Aura, Morag, Poland) and ertapenem (Pol-Aura, Morag, Poland).

[7] = system: K. pneumoniae 81 KPC-3-positive; assay: as above; type: cell-based, Klebsiella pneumoniae; details: Klebsiella pneumoniae; read-out: MIC of imipenem alone
Procedure: as §2, §3

[8] = system: K. pneumoniae 83 KPC-3-positive, CTX-M-3-positive; assay: as above; type: cell-based, Klebsiella pneumoniae; details: Klebsiella pneumoniae; read-out: MIC of imipenem alone
Procedure: as §2, §3

[9] = system: K. pneumoniae ATCC BAA-1705 KPC-2-positive; assay: as above; type: cell-based, Klebsiella pneumoniae; details: Klebsiella pneumoniae, ATCCBAA1705; read-out: MIC of imipenem alone
Procedure: as §2, §3

[10] = system: P. aeruginosa MUW 700 cAmpC-positive; assay: combination disc test CDT-AmpC; type: cell-based; details: Pseudomonas aeruginosa; ceftazidime 30 µg per disc, 6 mm disc; read-out: Diameter of inhibition zone, CAZ-30 disc without agent
[11] = system: E. coli 77 CMY-2-positive; assay: combination disc test CDT-AmpC; type: cell-based; details: Escherichia coli; ceftazidime 30 µg per disc, 6 mm disc; read-out: Diameter of inhibition zone, CAZ-30 disc without agent
[12] = system: K. pneumoniae ATCC 700603 ESBL-positive; assay: combination disc test CDT-ESBL; type: cell-based; details: Klebsiella pneumoniae, ATCC700603; ceftazidime 30 µg per disc, 6 mm disc; read-out: Diameter of inhibition zone, CAZ-30 disc without agent
[13] = system: E. coli 77 CMY-2-positive; assay: checkerboard microdilution, antibiotic plus tested agent; type: cell-based, Escherichia coli; details: Escherichia coli; read-out: MIC of ceftazidime alone
Procedure: as §2, §3

[14] = system: P. aeruginosa MUW 700 cAmpC-positive; assay: as above; type: cell-based, Pseudomonas aeruginosa; details: Pseudomonas aeruginosa; read-out: MIC of ceftazidime alone
Procedure: as §2, §3

[15] = 0.4 mg per disc, 9 mm disc (fluconazole 0.025 mg, 6 mm disc), - no zone, read-out: Diameter of inhibition zone

| SMILES | MIC (E. faecalis ATCC 29212) [µg/mL] | MIC (E. faecium ATCC 6057) [µg/mL] | MIC [1] [µg/mL] | MIC (S. aureus ATCC 6538P) [µg/mL] | MIC [2] [µg/mL] | MIC [3] [µg/mL] | MIC [4] [µg/mL] | MIC (C. krusei ATCC 6258) [µg/mL] | MIC (C. albicans ATCC 90028) [µg/mL] | MIC (C. tropicalis ATCC 750) [µg/mL] | MIC (C. tropicalis IBA 171) [µg/mL] | MIC (S. cerevisiae ATCC 9763) [µg/mL] | viability at 72 h, 12.5 mg/L [5] [%] | viability at 72 h, 25 mg/L [5] [%] | viability at 72 h, 50 mg/L [5] [%] | also measured |
| --- | --- | --- | --- | --- | --- | --- | --- | --- | --- | --- | --- | --- | --- | --- | --- | --- |
| OB(O)c1c(F)c(F)c(B(O)O)c(F)c1F [1g] | > 400 | > 400 | > 400 | > 400 | > 400 | > 400 | > 400 | 400 (≈ 1680 µM) | > 400 | > 400 | > 400 | > 400 | 104 ± 8.2 | 107 ± 9.2 | 98.7 ± 5.8 |  |
| OC(Cn1cncn1)(Cn1cncn1)c1ccc(F)cc1F [Fl, fluconazole, reference compound] |  |  |  |  |  | 2 (≈ 6.53 µM) | 0.75 (≈ 2.45 µM) | 64 (≈ 209 µM) | 1 (≈ 3.27 µM) | 0.38 (≈ 1.24 µM) | 0.38 (≈ 1.24 µM) | 16 (≈ 52.2 µM) |  |  |  | zone of inhibition at 0.4 mg/disc [3, 15]: 32 mm; zone of inhibition at 0.4 mg/disc [4, 15]: 40 mm; zone of inhibition at 0.4 mg/disc (C. krusei ATCC 6258; [15]): 16 mm; zone of inhibition at 0.4 mg/disc (C. albicans ATCC 90028; [15]): 43 mm; zone of inhibition at 0.4 mg/disc (C. tropicalis ATCC 750; [15]): 40 mm; zone of inhibition at 0.4 mg/disc (C. tropicalis IBA 171; [15]): 39 mm; zone of inhibition at 0.4 mg/disc (S. cerevisiae ATCC 9763; [15]): 12 mm |
| C[C@@H](O)[C@H]1C(=O)N2C(C(=O)O)=C(SCCN=CN)C[C@H]12 [IMI, imipenem, reference compound] |  |  |  |  |  |  |  |  |  |  |  |  |  |  |  | MIC [6]: 128 µg/mL; MIC [7]: 8 µg/mL; MIC [8]: 8 µg/mL; MIC [9]: 16 µg/mL |
| COc1cc(B(O)O)c(OC)cc1B(O)O [1l] |  |  |  |  |  |  |  |  |  |  |  |  | 110 ± 1.6 | 114 ± 1.8 | 105 ± 7.8 |  |
| Cl.OB(O)c1cncc(B(O)O)c1 [6a, pyridine-3,5-diboronic acid hydrochloride] | > 400 | 400 | 400 | 50 | 400 | > 400 | > 400 | > 400 | > 400 | > 400 | > 400 | > 400 | 138 ± 3.6 | 133.5 ± 0.7 | 127 ± 2.6 |  |
| OB(O)c1ccc(B(O)O)s1 [5b] | 200 (≈ 1160 µM) | > 400 | > 400 | > 400 | > 400 | > 400 | > 400 | 400 (≈ 2330 µM) | 400 (≈ 2330 µM) | > 400 | > 400 | > 400 | 101 ± 7.7 | 110 ± 2.7 | 87.3 ± 13.6 |  |
| CC(C)(O/N=C(\C(=O)N[C@@H]1C(=O)N2C(C(=O)[O-])=C(C[n+]3ccccc3)CS[C@H]12)c1csc(N)n1)C(=O)O [CAZ, ceftazidime, reference compound] |  |  |  |  |  |  |  |  |  |  |  |  |  |  |  | zone of inhibition at 30 µg/disc [10]: 11 mm; zone of inhibition at 30 µg/disc [11]: 13 mm; zone of inhibition at 30 µg/disc [12]: 14 mm; MIC [13]: 64 µg/mL; MIC [14]: 128 µg/mL |

Source: PMC10648349, “Aromatic Diboronic Acids as Effective KPC/AmpC Inhibitors” (Molecules, 2023)
